Measurements: patent publication US8367726B2, “Acid salt of tolterodine having effective stability for transdermal drug delivery system” (SK Chemicals Co., Ltd., priority 2008, dated 2013)
Counter-ions that a name gives are not always drawn.

Tests used:
[1] = Alkali stability test (1M sodium hydroxide solution, HPLC total related substances); assay type: physicochemical; settings: room temperature, 24 hours, HPLC area ratio of total related substances
Excerpt: (§1) This experiment is designed to confirm the storage stability of the various acid salts of tolterodine.
(§2) For a pharmaceutical drug to be processed into a certain formulation it is essential to be provided with sufficient storage stability. For example, for tablets or capsules, it is necessary for them to have stability in atmospheric condition, for injections, stability in moisture (water), and for patches, both stability in atmospheric condition and in moisture (water).

[2] = Stability test under oxidation condition (0.3% hydrogen peroxide solution, HPLC total related substances); assay type: physicochemical; settings: room temperature, 24 hours, HPLC area ratio of total related substances
Excerpt: as §1, §2

[3] = Stability test under acid condition (HPLC total impurities); assay type: physicochemical; settings: acid condition (details not described)
Excerpt: as §1, §2

[4] = In vitro penetration test, Frantz cell mounted with hairless mouse skin; settings: 10 mg/mL in propylene glycol, 32° C.
Method: I mL of tolterodine salt was added onto a Frantz cell, which was mounted with a hairless mouse skin. Then, the amount of tolterodine penetrated through the skin at 32° C. was quantitated and its cumulative amount was measured.

Compound	Total impurities, alkali condition [1] [% area]	Total impurities, oxidation condition [2] [% area]	Total impurities, acid condition [3] [% area]	Cumulative amount of tolterodine penetrated through the skin ([4]; 0 hr) [µg]	Cumulative amount of tolterodine penetrated through the skin ([4]; 3 hr) [µg]	Cumulative amount of tolterodine penetrated through the skin ([4]; 6 hr) [µg]	Cumulative amount of tolterodine penetrated through the skin ([4]; 9 hr) [µg]	Cumulative amount of tolterodine penetrated through the skin ([4]; 12 hr) [µg]
Cc1ccc(O)c(C(CCN(C(C)C)C(C)C)c2ccccc2)c1.O=C(O)c1ccc2ccccc2c1O (stereo not drawn) [tolterodine 1-hydroxy-2-naphtate, tolterodine 1-hydroxy-2-naphthate]	0.15	0.33	0.10					
Cc1ccc(O)c([C@H](CCN(C(C)C)C(C)C)c2ccccc2)c1.O=C1CC[C@@H](C(=O)O)N1 [tolterodine L-pyroglutamate, Tolterodine L-Pyroglutamate]	0.08	0.56	0.03					
Tolterodine Glucolate	0.23	0.44	0.11					
Cc1ccc(O)c([C@H](CCN(C(C)C)C(C)C)c2ccccc2)c1 [tolterodine free base, 2-[(1R)-3-(diisopropylamino)-1-phenylpropyl)-4-methylphenol, reference compound]	0.83	4.74	0.59					
CC1=C(/C=C/C(C)=C/C=C/C(C)=C/C(=O)O)C(C)(C)CCC1.Cc1ccc(O)c([C@H](CCN(C(C)C)C(C)C)c2ccccc2)c1 [tolterodine retinoate, Tolterodine Retinoate]	0.19	0.08	0.15	0.0	0.5	1.7	2.5	4.1
Cc1ccc(O)c([C@H](CCN(C(C)C)C(C)C)c2ccccc2)c1.O=C(O)c1ccccc1 [tolterodine benzoate, Tolterodine Benzoate]	0.10	0.39	0.02					
Cc1ccc(O)c([C@H](CCN(C(C)C)C(C)C)c2ccccc2)c1.Cc1ccc(O)c([C@H](CCN(C(C)C)C(C)C)c2ccccc2)c1.O=C(O)CCCCC(=O)O [tolterodine hemiadipate, Tolterodine Hemiadipate]	0.10	0.39	0.14					
Tolterodine Toluene Sulfonate [tolterodine p-toluenesulfonate]	0.06	0.09	0.11	0.0	1.1	8.0	19.9	36.6
Cc1ccc(O)c([C@H](CCN(C(C)C)C(C)C)c2ccccc2)c1.O=C(O)CNC(=O)c1ccccc1 [tolterodine hippurate, Tolterodine Hippurate]	0.14	0.41	0.11					
Cc1ccc(O)c([C@H](CCN(C(C)C)C(C)C)c2ccccc2)c1.O=C(O)c1cc(O)ccc1O [tolterodine gentisate, Tolterodine Gentisate]	0.04	0.23	0.03					
Cc1ccc(O)c([C@H](CCN(C(C)C)C(C)C)c2ccccc2)c1 [tolterodine tartrate, reference compound]	0.29	0.98	0.20					
Cc1ccc(O)c([C@H](CCN(C(C)C)C(C)C)c2ccccc2)c1.Cc1ccc(O)c([C@H](CCN(C(C)C)C(C)C)c2ccccc2)c1.O=S(=O)(O)c1cccc2c(S(=O)(=O)O)cccc12 [tolterodine hemi naphthalene-1,5-disulfonate]	0.11	0.40	0.07					
Tolterodine Benzene Sulfonate [tolterodine benzenesulfonate]	0.08	0.51	0.02	0.0	0.0	0.4	0.8	1.7
